Laboratory results from patent US20190298772A1, “COMBINATION THERAPY OF A T CELL-BASED THERAPY AND A BTK INHIBITOR” (Juno Therapeutics, Inc., priority 2016, published 2019).

What was measured:
anti-CD19 CAR T cells [1] = experiment: Cytolytic activity of anti-CD19 CAR T cells co-cultured with K562-CD19 target cells in the presence of ibrutinib; type: cell-based, human
Excerpt: (§1) To generate CAR-expressing T cells, T cells were isolated by immunoaffinity-based enrichment from three healthy human donor subjects, and cells from each donor were activated and transduced with a viral vector encoding an anti-CD19 CAR. The CAR contained an anti-CD19 scFv, an Ig-derived spacer, a human CD28-derived transmembrane domain, a human 4-1BB-derived intracellular signaling domain and a human CD3 zeta-derived signaling domain. The nucleic acid construct encoding the CAR also included a truncated EGFR (tEGFR) sequence for use as a transduction marker, separated from the CAR sequence by a self-cleaving T2A sequence.
(§2) CAR-expressing CD4+ and CD8+ cells were mixed 1:1 for each donor, individually, and the pooled cells for each donor assessed in vitro under various conditions.
CAR T cells generated as described above were plated in triplicate on Poly-D-Lysine plates and then co-cultured with ibrutinib-resistant CD19-expressing target cells (K562 cells transduced to express CD19, K562-CD19) at an effector to target (E:T) ratio of 2.5:1. The target cells were labeled with NucLight Red (NLR), to permit tracking of target cells by microscopy.

anti-CD19 CAR T cells [2] = experiment: Expression of CAR-T cell surface markers by flow cytometry after stimulation with irradiated K562-CD19 cells; type: cell-based, human
Excerpt: as §1, §2
CAR-T cells generated as described above were plated at 100,000 cells/well on 96 well Poly-D-Lysine coated plates. Irradiated K562-CD19 target cells were added at an effector to target ratio of 2.5:1. […] Cells were harvested at 1, 2, 3, and 4 days, and were analyzed by flow cytometry for T cell activation and differentiation surface markers CD69, CD107a, PD-1, CD25, CD38, CD39, CD95, CD62L, CCR7, CD45RO and for truncated EGFR (a surrogate marker for CAR-transduced cells).

anti-CD19 CAR T cells [3] = experiment: Cytokine production in supernatants of CAR-T / K562-CD19 co-cultures (MSD); type: cell-based, human
Excerpt: as §1, §2
CAR-T cells generated as described above were plated at 100,000 cells/well on 96 well Poly-D-Lysine coated plates to which irradiated target cells (K562-CD19) were added at an effector to target ratio of 2.5:1. […] Culture supernatants were harvested every 24 hrs at days 1, 2, 3 and 4, and IFNγ, IL-2, TNFα, IL-4 and IL-10 were measured from the culture supernatants using cytokine kits from Meso Scale Discovery (MSD).

anti-CD19 CAR T cells [4] = experiment: Serial restimulation assay of anti-CD19 CAR+ T cells with K562-CD19 target cells; type: cell-based, human
Excerpt: as §1, §2
(§3) The ability of cells to expand ex vivo following repeated stimulations in some aspects can indicates capacity of CAR-T cells to persist (e.g., following initial activation) and/or is indicative of function and/or fitness in vivo (Zhao et al. (2015) Cancer Cell, 28:415-28). Anti-CD19 CAR+ T cells generated as described above were plated in triplicate at 100,000 cells/well on 96 well Poly-D-Lysine coated plates, and irradiated target cells (K562-CD19) were added at an effector to target ratio of 2.5:1. […] A total of 7 rounds of stimulation during a 25 day culture period were carried out.

anti-CD19 CAR T cells [5] = experiment: TH1 phenotype and marker flow cytometry of CAR T cells from serial restimulation; type: cell-based, human
Method: as §3
A serial restimulation assay was performed as described above and cells were harvested at various times and analyzed by flow cytometry to assess percentage of TH1-phenotype (assessed as CD4+CXCR3+CRTH2−) T cells or TH2-phenotype (assessed as CD4+CXCR3−CRTH2+).

anti-CD19 CAR T cells [6] = experiment: Gene expression analysis (Nanostring Immune V2 panel) after 18 days serial stimulation; type: cell-based, human; settings: 50 nM or 500 nM; day 18
Excerpt: At day 18 after serial stimulation, RNA was isolated from anti-CD19 CAR T cells and Nanostring Immune V2 panel tests were run across 594 genes. The log 2 (fold change) of each gene was plotted against the −log 10(Raw p-value) derived from ANOVA tests of unscaled housekeeping gene normalized to count data for treatment versus control.

[7] = system: CD19+Nalm-6 disseminated tumor line; experiment: Nalm-6 disseminated tumor xenograft mouse model, ibrutinib by daily oral gavage; type: in vivo, NOD/Scid/gc−/− (NSG) mice
Excerpt: On day zero (0), NSG mice were intravenously injected with 5×10^5 Nalm-6 cells expressing firefly luciferase. […] To permit assessment of the effect of a combination therapy with the inhibitor, a suboptimal dose of anti-CD19 CAR T cells from two different donors (generated by transducing cells derived from samples of human donor subjects essentially as described above) were i.v. injected into each mouse at a concentration of 5×10^5 CAR+ T cells per mouse at day 5. […] Eight (N=8) mice per group were monitored.
Following treatment as described above, tumor growth over time was measured by bioluminescence imaging and the average radiance (p/s/cm^2/sr) was measured. Survival of treated mice also was assessed over time.

[8] = system: CD19+Nalm-6 disseminated tumor line; experiment: Nalm-6 disseminated tumor xenograft mouse model, ibrutinib in drinking water; type: in vivo, NSG mice
Method: (§4) NSG mice described in Example 2 were intravenously injected on day 0 with 5×10^5 Nalm-6 cells expressing firefly luciferase. […] To permit assessment of the effect of a combination therapy with the inhibitor, a suboptimal dose of anti-CD19 CAR T cells was i.v. injected into the mice at 5×10^5/mouse at day 5. As a control, mice were administered the vehicle control without administration of the CAR-T cells or inhibitor.

anti-CD19 CAR+ T cells [9] = experiment: Pharmacokinetic analysis of CAR+ T cells and tumor cells in blood, bone marrow and spleen; type: in vivo, NSG mice
Method: as §4
Samples were analyzed to assess presence and levels of CAR T cells (based on expression of the surrogate marker using an anti-EGFR antibody) and/or tumor cells at days 7, 12, 19 and 26 post CAR+ T cell transfer.

anti-CD19 CAR+ T cells [10] = experiment: Ex vivo immunophenotyping (t-SNE) of CAR+ T cells from bone marrow at day 12; type: in vivo, NSG mice; settings: day 12 post CAR T transfer
Method: as §4
Cells were assessed for surface markers CD44, CD45RA, CD62L, CD154, CXCR3, CXCR4, and PD-1 by flow cytometry and T-distributed stochastic neighbor embedding (t-SNE) high dimensional analysis was performed using FlowJo software. […] FACs histograms showing the individual expression profiles of CD4, CD8, CD62L, CD45RA, CD44 and CXCR3 from the 4 gated t-SNE in FIG. 8B overlaid on the expression of the total population (shaded) is shown in FIG. 8C.

[11] = system: anti-CD19 CAR-T cells from DLBCL subjects; experiment: Serial restimulation and cytolytic function of anti-CD19 CAR-T cells manufactured from DLBCL patients; type: cell-based, human
Excerpt: Anti-CD19 CAR-T cells were generated substantially as described in Example 1, except that T cells were isolated from two different human subjects having diffuse large B-cell lymphoma (DLBCL). […] Cells were subjected to serial restimulation over a 21 day culture period and monitored for cell expansion and cytotoxic activity.

CAR-expressing T cells = experiment: RNA-Seq molecular signature of CAR-expressing T cells after 18 days serial stimulation; type: cell-based, human; settings: day 18
Method: RNA isolation was performed using the RNEasy Micro Kit (Qiagen). Samples were sequenced and RNASeq reads were mapped to the human genome (GRCh38) and aligned to the GENCODE release 24 gene model. […] Differentially expressed genes were identified by imposing a log2 fold change cutoff of 0.5 and a Benjamini-Hochberg adjusted false discovery rate (FDR) cutoff of 0.05.

C=CC(=O)N1CCC[C@@H](n2nc(-c3ccc(Oc4ccccc4)cc3)c3c(N)ncnc32)C1 [ibrutinib]
cytolytic function of anti-CD19 CAR T cells (anti-CD19 CAR T cells [1]; all concentrations tested (5000, 500, 50, 5, 0.5 nM) during co-culture): did not inhibit the cytolytic function | target cell killing (anti-CD19 CAR T cells [1]; one donor, P<0.0001): modestly increased target cell killing | cytolytic activity of anti-CD19 CAR-expressing T cells (target cell killing normalized to untreated control, AUC) (anti-CD19 CAR T cells [1]; two donors, up to supra-physiological 500 nM, E:T 2.5:1, 4 days): did not significantly impact cytolytic activity | expression of truncated EGFR, CD25, CD38, CD39, CD95, CD62L, CCR7, CD45RO (anti-CD19 CAR T cells [2]; 5000, 500, 50, 5 and 0.5 nM, 3 donors, up to 4 days): no significant effect | phenotype as central (TCM) or effector (TEM) memory subsets (CCR7, CD45RA) (anti-CD19 CAR T cells [2]; over four days after stimulation): did not affect the phenotype | expression levels of CD69, CD107a or PD-1 on CD4+ or CD8+ cells (anti-CD19 CAR T cells [2]; seen at highest (supraphysiological) concentration): subtle decrease | IFN-γ and IL-2 production (anti-CD19 CAR T cells [3]; 50 nM ibrutinib): some increase | cytokine production (anti-CD19 CAR T cells [3]; 50 nM ibrutinib, some donors): modestly increased cytokine production | cytokine concentrations (anti-CD19 CAR T cells [3]; physiological concentrations of ibrutinib): did not significantly decrease cytokine concentrations | CD62L expression by flow cytometry (anti-CD19 CAR T cells [4]; after 18 days serial stimulation, donors 2 and 3): significant increase in CD62L expression | cell numbers and population doublings (anti-CD19 CAR T cells [4]; day 18, 50 and 500 nM, two of three donors): enhanced cell numbers and population doublings | cell counts (anti-CD19 CAR T cells [4]; donor 3, day 18, highest concentration tested): Non-significant, increased cell counts | percentage of TH1 cells (anti-CD19 CAR T cells [5]; 500 nM, 18-day serial stimulation, P<0.01): further enhanced the percentage of TH1 cells | additional CAR T activation or memory markers (anti-CD19 CAR T cells [5]; CAR T cells from serial stimulation assay): No significant effects | percentage of CAR+ T cells with TH1 phenotype (CD4+CXCR3+CRTH2−) (anti-CD19 CAR T cells [5]; after serial stimulation, greater with increasing concentrations): increase the percentage | gene expression across 594 genes (anti-CD19 CAR T cells [6]): did not significantly alter gene expression | median survival vs CAR T + vehicle ([7]; ibrutinib 25 mg/kg qd P.O. plus suboptimal anti-CD19 CAR T cells, FIG. 6C): increased median survival | tumor growth vs CAR-T cells and vehicle ([7]; ibrutinib 25 mg/kg qd P.O. plus suboptimal dose anti-CD19 CAR T cells): significantly decreased tumor growth | tumor burden (average radiance) vs vehicle ([7]; ibrutinib alone, 25 mg/kg qd P.O., no CAR-T cells): no effect on tumor burden | survival at greater time points vs CAR T and vehicle ([7]; ibrutinib plus CAR T, two donors, FIG. 6D, p<0.001): significantly increased survival | tumor growth vs CAR T with vehicle ([8]; ibrutinib 25 mg/kg/day in drinking water plus CAR T): significantly (P<0.001) decreased tumor growth | median survival vs CAR T + vehicle ([8]; ibrutinib 25 mg/kg/day in drinking water plus suboptimal anti-CD19 CAR-T cells, p<0.001): increased median survival | tumor cells in blood, bone marrow or spleen vs vehicle (anti-CD19 CAR+ T cells [9]; CAR+ cell treatment combined with ibrutinib): significantly fewer tumor cells | circulating CAR+ T cells vs CAR+ T cells and vehicle (anti-CD19 CAR+ T cells [9]; blood, days 7-26 post transfer, ibrutinib in drinking water): significant increase in circulating CAR+ T cells | number of cells in the blood (anti-CD19 CAR+ T cells [9]; day 19 post CAR-T cell transfer, p<0.05): significant increase in the number of cells in the blood | population 4 (CD4+CD44hi CXCR3 CD45RAhi CD62Lhi) as share of CAR-T cells (anti-CD19 CAR+ T cells [10]; bone marrow, ibrutinib-treated animals): 15.2% | populations 2 and 4 in bone marrow vs control mice (anti-CD19 CAR+ T cells [10]; CAR T plus ibrutinib): increase | cytolytic activity ([11]; 50 nM, after 16 days, one patient, P<0.01): increase in cytolytic activity | cytolytic function ([11]; 500 nM, after 16 days serial stimulation, each subject): increase in cytolytic function | proliferation (cell doublings) of patient-derived CAR T cells ([11]; 50 and 500 nM, 21 day culture, two DLBCL patients): did not inhibit the proliferation | gene expression changes (CAR-expressing T cells; 50 nM): not significant, similar trends | number of protein-coding genes with significantly altered expression (CAR-expressing T cells; 500 nM, FDR<0.05, absLog2FC>0.5): 23 | expression of HES6, HIC1, LZTFL1, NRIP1, CD38 and RARRES3 (CAR-expressing T cells; ibrutinib vs control): downregulation | expression of MSC (CAR-expressing T cells; ibrutinib vs control): upregulation | expression of SELL/CD62L (CAR-expressing T cells; ibrutinib vs control): increases | expression of granzyme A and CD38 (CAR-expressing T cells; ibrutinib vs control): decreases
